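Compound exposure: 48 hours, 5 concentrations, 96-well plates. Here, GI50 denotes the concentration required for 50% inhibition of growth.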 Activity calls are given as the source filed them. No stated cut-off is given here; in the data, active = GI50 up to about 1.1 µM and inactive = higher.
Key:
Experiment in all cases: NCI tumour cell line growth inhibition, 48 h
CCRF-CEM = system: CCRF-CEM
COLO 205 = system: COLO 205
HOP-92 = system: HOP-92
K562 = system: K562
LOX IMVI = system: LOX IMVI
NCI-H23 = system: NCI-H23
OVCAR-4 = system: OVCAR-4
RXF 393 = system: RXF 393
SF-268 = system: SF-268
SK-MEL-5 = system: SK-MEL-5
SN12C = system: SN12C
SNB-19 = system: SNB-19
SR = system: SR
SW-620 = system: SW-620
U-251 = system: U-251
UACC-257 = system: UACC-257
CAKI-1 = system: CAKI-1
MCF7 = system: MCF7
MDA-N = system: MDA-N

Measured: GI50

COc1ccc(CNC2=C(NC(C)=O)C(=O)c3ccccc3C2=O)cc1
inactive: CCRF-CEM 8.73 µM | COLO 205 9.44 µM | HOP-92 6.56 µM | K562 7.76 µM | LOX IMVI 8.51 µM | NCI-H23 6.68 µM | OVCAR-4 8.13 µM | RXF 393 6.41 µM | SF-268 18.9 µM | SK-MEL-5 7.48 µM | SN12C 16.8 µM | SNB-19 25.5 µM | SR 14 µM | SW-620 8.13 µM | U-251 12.4 µM | UACC-257 8.77 µM

CC(=O)OCC(OC(C)=O)C(OC(C)=O)C(/C=N\Nc1nc2ccccc2c(=O)[nH]1)OC(C)=O (stereo unspecified)
inactive: CAKI-1 > 100 µM | CCRF-CEM > 100 µM | COLO 205 > 100 µM | HOP-92 > 100 µM | K562 > 100 µM | LOX IMVI > 100 µM | MCF7 > 100 µM | MDA-N > 100 µM | NCI-H23 > 100 µM | SF-268 > 100 µM | SK-MEL-5 > 100 µM | SN12C > 100 µM | SNB-19 > 100 µM | SR > 100 µM | SW-620 > 100 µM | U-251 > 100 µM | UACC-257 > 100 µM

CCC(=O)C12OC3OC(C)(C)OC3C1OC(C)(C)O2 (stereo unspecified)
inactive: CAKI-1 > 100 µM | CCRF-CEM > 100 µM | HOP-92 > 100 µM | K562 > 100 µM | NCI-H23 > 100 µM | OVCAR-4 > 100 µM | RXF 393 > 100 µM | SF-268 > 100 µM | SK-MEL-5 > 10 µM | SN12C > 100 µM | SNB-19 > 100 µM | SR > 100 µM | SW-620 > 100 µM | U-251 > 100 µM | UACC-257 > 100 µM

CCOC(=O)CN1C(=O)C(=O)N(c2ccc(OC)c3ccccc23)C1=O
inactive: CAKI-1 > 100 µM | CCRF-CEM > 100 µM | COLO 205 > 100 µM | K562 > 100 µM | LOX IMVI > 100 µM | MCF7 > 100 µM | MDA-N > 100 µM | NCI-H23 > 100 µM | OVCAR-4 > 100 µM | RXF 393 > 100 µM | SF-268 > 100 µM | SK-MEL-5 > 100 µM | SN12C > 100 µM | SNB-19 > 100 µM | SR > 100 µM | SW-620 > 100 µM | U-251 > 100 µM | UACC-257 > 100 µM

CC1=C(C(=O)NCc2ccccc2)C(c2ccccc2O)C(C(=O)NCc2ccccc2)=C(C)N1
inactive: CAKI-1 18.3 µM | CCRF-CEM 26.5 µM | COLO 205 16.9 µM | HOP-92 22.4 µM | K562 36.1 µM | LOX IMVI 14.5 µM | NCI-H23 17.1 µM | OVCAR-4 17 µM | RXF 393 17.9 µM | SF-268 22.9 µM | SK-MEL-5 15 µM | SN12C 17.1 µM | SNB-19 19.2 µM | SR 28.9 µM | SW-620 17.7 µM | U-251 15.5 µM | UACC-257 16.1 µM

Cc1cn(C2CC(N(O)C(N)=O)C(CO)O2)c(=O)[nH]c1=O (stereo unspecified)
inactive: CAKI-1 > 100 µM | COLO 205 > 100 µM | HOP-92 > 100 µM | K562 > 100 µM | MCF7 > 100 µM | MDA-N > 100 µM | NCI-H23 > 100 µM | OVCAR-4 > 100 µM | RXF 393 > 100 µM | SF-268 > 100 µM | SK-MEL-5 > 100 µM | SN12C > 100 µM | SNB-19 > 100 µM | SW-620 > 100 µM | U-251 > 100 µM

O=S1(=O)OCCOS(=O)(=O)C1S(=O)(=O)c1ccc2ccccc2c1
inactive: CAKI-1 > 100 µM | CCRF-CEM > 100 µM | COLO 205 > 100 µM | HOP-92 > 100 µM | K562 > 100 µM | LOX IMVI > 100 µM | MCF7 > 100 µM | MDA-N > 100 µM | NCI-H23 > 100 µM | OVCAR-4 > 100 µM | SK-MEL-5 > 100 µM | SN12C > 100 µM | SNB-19 > 100 µM | SR > 100 µM | SW-620 > 100 µM | U-251 > 100 µM | UACC-257 > 100 µM

C#CC1/C(=C\C(=O)OC)CCCC1O (stereo unspecified)
inactive: CAKI-1 > 100 µM | CCRF-CEM > 100 µM | COLO 205 > 100 µM | HOP-92 > 100 µM | K562 > 100 µM | NCI-H23 > 100 µM | OVCAR-4 > 100 µM | RXF 393 > 100 µM | SF-268 > 100 µM | SK-MEL-5 > 100 µM | SN12C > 100 µM | SNB-19 > 100 µM | SR > 100 µM | SW-620 > 100 µM | U-251 > 100 µM | UACC-257 > 100 µM

N#CCN1CCOCCOCCN(CC#N)CCOCCOCC1
inactive: CAKI-1 > 100 µM | CCRF-CEM > 100 µM | COLO 205 > 100 µM | HOP-92 > 100 µM | K562 > 100 µM | LOX IMVI > 100 µM | NCI-H23 > 100 µM | OVCAR-4 > 100 µM | RXF 393 > 100 µM | SF-268 > 100 µM | SK-MEL-5 > 100 µM | SN12C > 100 µM | SNB-19 > 100 µM | SR > 100 µM | SW-620 > 100 µM | UACC-257 > 100 µM

Cc1ccc(S(=O)OCc2c(C)c(C)c(COS(=O)c3ccc(C)cc3)c(C)c2C)cc1 (stereo unspecified)
inactive: CAKI-1 > 100 µM | COLO 205 > 100 µM | HOP-92 > 100 µM | K562 65.5 µM | LOX IMVI > 100 µM | NCI-H23 > 100 µM | OVCAR-4 > 100 µM | RXF 393 > 100 µM | SF-268 > 100 µM | SK-MEL-5 > 100 µM | SN12C > 100 µM | SNB-19 > 100 µM | SR > 100 µM | SW-620 > 100 µM | U-251 > 100 µM | UACC-257 > 100 µM

CNC(=O)CN(CC(=O)O)C(=O)NC
inactive: CAKI-1 > 100 µM | CCRF-CEM > 100 µM | COLO 205 > 100 µM | HOP-92 > 100 µM | K562 > 100 µM | LOX IMVI > 100 µM | NCI-H23 > 100 µM | OVCAR-4 > 100 µM | RXF 393 > 100 µM | SF-268 > 100 µM | SK-MEL-5 > 100 µM | SNB-19 > 100 µM | SR > 100 µM | SW-620 > 100 µM | U-251 > 100 µM | UACC-257 > 100 µM

COc1cccc(/C=C2\CCC(CCN(C)C)(C3=CCCC3)C2=O)c1 (stereo unspecified)
inactive: CAKI-1 12.3 µM | CCRF-CEM 19.1 µM | COLO 205 8.3 µM | HOP-92 12.3 µM | K562 15.5 µM | LOX IMVI 15.6 µM | NCI-H23 19.3 µM | OVCAR-4 16.4 µM | RXF 393 8.73 µM | SF-268 21.3 µM | SK-MEL-5 17.7 µM | SN12C 14.9 µM | SNB-19 16.8 µM | SR 35.5 µM | SW-620 13.9 µM | U-251 16.6 µM | UACC-257 15.5 µM

From ChEMBL document CHEMBL1201862, “PubChem BioAssay data set” (2004)
